In ChEMBL document CHEMBL1130537, “Asymmetric synthesis of the sulfoxide metabolite of ON-579 by the kagan protocol” (Bioorg Med Chem Lett, 1997):

Organism: Oryctolagus cuniculus
Experiment: Inhibitory activity against U-46,619-induced rabbit platelet aggregation was determined
Type: functional

| IC50 (Oryctolagus cuniculus) [µM] | IC50 [µM] | SMILES |
| --- | --- | --- |
| 0.34 | – | O=C(O)COc1c(F)cc(SCCNS(=O)(=O)c2ccc(Cl)cc2)cc1F |
| – | ≥ 1 | O=C(O)COc1c(F)cc([S+]([O-])CCNS(=O)(=O)c2ccc(Cl)cc2)cc1F (racemic; form 1) |
| – | 18.9 | O=C(O)COc1c(F)cc([S+]([O-])CCNS(=O)(=O)c2ccc(Cl)cc2)cc1F (racemic; form 2) |
| – | 13.3 | O=C(O)COc1c(F)cc([S+]([O-])CCNS(=O)(=O)c2ccc(Cl)cc2)cc1F (stereo in doubt; (-/-)4b) |
